This is an account of results in article PMC2228184 (British Journal of Cancer, 1997).

Like-named read-outs stand apart in the source and are kept apart here.

In data set [1] the test system is patients with advanced solid tumours. The conditions noted are these: human, in vivo. From the text: (§1) Topoisomerases are essential nuclear enzymes that alter the topology of DNA during DNA metabolism by cleavage of DNA strands, strand passage and religation (Wang, 1985). Two major topoisomerases, types I and H, have been identified in all mammalian cells, and induce single- and double-strand breaks respectively. […] They have different sites of binding DNA and play a different role in the cell cycle. Received 15 November 1996 Revised 19 February 1997 Accepted 10April 1997 Correspondence to: VMM Herben, Slotervaart Hospital, Department of Pharmacy and Pharmacology, Louwesweg 6, 1066 EC Amsterdam, The Netherlands Topotecan (Hycamtin), a semisynthetic water-soluble derivative of camptothecin, was the first topoisomerase I-targeting drug to undergo clinical testing since the discontinuation of the clinical development of sodium camptothecin in the early 1970s. […] In view of topotecan's unique mechanism of action and important anti-tumour effects as single agent, recent studies have focused on combination therapies with other effective anti- cancer agents. The combination of topoisomerase I inhibitors with topoiso- merase II poisons is in theory an attractive strategy. As resistance to inhibition of one class of topoisomerase enzymes is accompa- nied with an elevated sensitivity to the other class of topoiso- merase inhibitors in vitro (Tan et al, 1989; Sugimoto et al, 1990), a combined administration regimen of inhibitors of both topoiso- merases could effectively kill tumour cells. […] The recommended dose for this schedule is 1.5 mg m-2 day-1 (Rowinsky et al, 1991; Verweij et al, 1993). […] Other eligibility criteria included a Zubrod-ECOG-WHO performance status < 2, anticipated life expectancy of 2 3 months and age 2 18 years. Previous anti-cancer chemotherapy had to be discontinued for at least 4 weeks before entry into the study or 6 weeks in cases of pretreatment with a nitrosourea or mitomycin C. All patients had acceptable bone marrow function white blood cell (WBC) ? […]

Data set [2] has the same test system. Conditions: both, human, in vivo.
Method: 0.3 h. […] 2.7 1 h-1 m-2 with a steady-state volume of distribution of 36.7 ? 6.2 I m-2. […] 1.0 h after infusion. […] 0.54 and 1.23 ? […] 1.2 and 2.3 ? 1.0 h after ingestion of 20 and 40 mg respectively. […] Other eligibility criteria included a Zubrod-ECOG-WHO performance status < 2, anticipated life expectancy of 2 3 months and age 2 18 years. Previous anti-cancer chemotherapy had to be discontinued for at least 4 weeks before entry into the study or 6 weeks in cases of pretreatment with a nitrosourea or mitomycin C. All patients had acceptable bone marrow function white blood cell (WBC) ? 4 x 10^9 1-1 and platelets 2 100 x 109 11; normal hepatic function, serum bilirubin < 1.5 mg dl-' (25 pmol 1-1) and other liver function tests < twice the normal upper limit or < five times when related to liver metastases, prothrombin or thrombotest within normal limits; normal renal function, serum creatinine < 1.4 mg dl-1 (120 gmol 1-1). The study protocol was approved by the Medical Ethics Committee of the hospital, and all patients gave written informed consent. Treatment plan and study design Topotecan (SmithKline Beecham Pharmaceuticals, King of Prussia, PA, USA) was supplied by the National Cancer Institute as a lyophilized light yellow powder in vials containing 5 mg of topotecan (as the free base), 60 mg of mannitol, 25 mg of tartaric acid and 2 M hydrochloric acid and/or 0.05 M sodium hydroxide for pH adjustment to 3.0. The content of each vial was reconsti- tuted with 2 ml of sterile water for injection, USP, yielding a 2.5 mg ml-1 solution of topotecan. The appropriate dosage of the drug was diluted in 50 or 100 ml of 0.9% sodium chloride and was administered intravenously over 30 min by a syringe pump.
A further data set is described as follows: clinical. Conditions: human, in vivo. From the text:
Topoisomerases are essential nuclear enzymes that alter the topology of DNA during DNA metabolism by cleavage of DNA strands, strand passage and religation (Wang, 1985). Two major topoisomerases, types I and H, have been identified in all mammalian cells, and induce single- and double-strand breaks respectively. […] They have different sites of binding DNA and play a different role in the cell cycle. Received 15 November 1996 Revised 19 February 1997 Accepted 10April 1997 Correspondence to: VMM Herben, Slotervaart Hospital, Department of Pharmacy and Pharmacology, Louwesweg 6, 1066 EC Amsterdam, The Netherlands Topotecan (Hycamtin), a semisynthetic water-soluble derivative of camptothecin, was the first topoisomerase I-targeting drug to undergo clinical testing since the discontinuation of the clinical development of sodium camptothecin in the early 1970s. […] In view of topotecan's unique mechanism of action and important anti-tumour effects as single agent, recent studies have focused on combination therapies with other effective anti- cancer agents. The combination of topoisomerase I inhibitors with topoiso- merase II poisons is in theory an attractive strategy. As resistance to inhibition of one class of topoisomerase enzymes is accompa- nied with an elevated sensitivity to the other class of topoiso- merase inhibitors in vitro (Tan et al, 1989; Sugimoto et al, 1990), a combined administration regimen of inhibitors of both topoiso- merases could effectively kill tumour cells. […] The recommended dose for this schedule is 1.5 mg m-2 day-1 (Rowinsky et al, 1991; Verweij et al, 1993). […] Other eligibility criteria included a Zubrod-ECOG-WHO performance status < 2, anticipated life expectancy of 2 3 months and age 2 18 years. Previous anti-cancer chemotherapy had to be discontinued for at least 4 weeks before entry into the study or 6 weeks in cases of pretreatment with a nitrosourea or mitomycin C. All patients had acceptable bone marrow function white blood cell (WBC) ? […] The study protocol was approved by the Medical Ethics Committee of the hospital, and all patients gave written informed consent. Treatment plan and study design Topotecan (SmithKline Beecham Pharmaceuticals, King of Prussia, PA, USA) was supplied by the National Cancer Institute as a lyophilized light yellow powder in vials containing 5 mg of topotecan (as the free base), 60 mg of mannitol, 25 mg of tartaric acid and 2 M hydrochloric acid and/or 0.05 M sodium hydroxide for pH adjustment to 3.0. The content of each vial was reconsti- tuted with 2 ml of sterile water for injection, USP, yielding a 2.5 mg ml-1 solution of topotecan. The appropriate dosage of the drug was diluted in 50 or 100 ml of 0.9% sodium chloride and was administered intravenously over 30 min by a syringe pump. […] The regimen was intended to be repeated every 4 weeks. This could be changed during the study to either shorter or longer intervals depending on bone marrow recovery. Doses were escalated in an alternating way according to the scheme in Table 1. […] Treatment cycles were to be repeated at 3-week intervals. Patients were scheduled to receive at least two courses.

Another data set concerns patients. The conditions noted are these: cited from earlier work.
Data set [3] in a line: Plasma pharmacokinetics of etoposide after oral administration (HPLC). Conditions: human. From the text: Topoisomerases are essential nuclear enzymes that alter the topology of DNA during DNA metabolism by cleavage of DNA strands, strand passage and religation (Wang, 1985). Two major topoisomerases, types I and H, have been identified in all mammalian cells, and induce single- and double-strand breaks respectively. […] They have different sites of binding DNA and play a different role in the cell cycle. Received 15 November 1996 Revised 19 February 1997 Accepted 10April 1997 Correspondence to: VMM Herben, Slotervaart Hospital, Department of Pharmacy and Pharmacology, Louwesweg 6, 1066 EC Amsterdam, The Netherlands Topotecan (Hycamtin), a semisynthetic water-soluble derivative of camptothecin, was the first topoisomerase I-targeting drug to undergo clinical testing since the discontinuation of the clinical development of sodium camptothecin in the early 1970s. […] In view of topotecan's unique mechanism of action and important anti-tumour effects as single agent, recent studies have focused on combination therapies with other effective anti- cancer agents. The combination of topoisomerase I inhibitors with topoiso- merase II poisons is in theory an attractive strategy. As resistance to inhibition of one class of topoisomerase enzymes is accompa- nied with an elevated sensitivity to the other class of topoiso- merase inhibitors in vitro (Tan et al, 1989; Sugimoto et al, 1990), a combined administration regimen of inhibitors of both topoiso- merases could effectively kill tumour cells. […] The recommended dose for this schedule is 1.5 mg m-2 day-1 (Rowinsky et al, 1991; Verweij et al, 1993). […] Other eligibility criteria included a Zubrod-ECOG-WHO performance status < 2, anticipated life expectancy of 2 3 months and age 2 18 years. Previous anti-cancer chemotherapy had to be discontinued for at least 4 weeks before entry into the study or 6 weeks in cases of pretreatment with a nitrosourea or mitomycin C. All patients had acceptable bone marrow function white blood cell (WBC) ? […] The study protocol was approved by the Medical Ethics Committee of the hospital, and all patients gave written informed consent. Treatment plan and study design Topotecan (SmithKline Beecham Pharmaceuticals, King of Prussia, PA, USA) was supplied by the National Cancer Institute as a lyophilized light yellow powder in vials containing 5 mg of topotecan (as the free base), 60 mg of mannitol, 25 mg of tartaric acid and 2 M hydrochloric acid and/or 0.05 M sodium hydroxide for pH adjustment to 3.0. The content of each vial was reconsti- tuted with 2 ml of sterile water for injection, USP, yielding a 2.5 mg ml-1 solution of topotecan. The appropriate dosage of the drug was diluted in 50 or 100 ml of 0.9% sodium chloride and was administered intravenously over 30 min by a syringe pump. […]

For data set [4] the following is noted: ref Clark et al, 1989; cited from earlier work.
Data set [5] is described as follows: Pharmacokinetics of N-desmethyltopotecan after 30-min infusion of topotecan. The format is in vivo, human.
Source text: as §1

On the set-up of data set [6]: method as in Johnson and Wood, personal communication. The conditions noted are these: ref Johnson and Wood, personal communication; cited from earlier work.

The term half-life denotes the time needed for the level to fall by half in the phase considered. For the molecule `CC[C@@]1(O)C(=O)OCc2c1cc1n(c2=O)Cc2cc3c(CN(C)C)c(O)ccc3nc2-1` [topotecan], the “dose associated with a 50% decrease in ANC (D50)” value in data set [1] (both) came to 0.6 mg m-2 day-1. Further, in data set [2], the “dose that could be given in combination, % of the single-agent dosage” value is given as 67-83% and the “recommended dose for phase II clinical trials” value is recorded as 1.0 mg m-2. For the same molecule, the half-life in “clinical” (both, iv) is 2.1 ± 0.3 h. Further, the alpha half-life in “clinical” was 3.8 ? 3.2 min. In the data set “clinical” (0.5 mg), the CL was 14.9 ? 1.8 l h-1 m-2, the Vss is reported as 34.0 ? 2.6 l m-2 and the t1/2 is on record as 1.9 ? 0.1 h. In addition, in “clinical” (1 mg), the CL is 13.4?2.6 l h-1 m-2, the Vss is 36.4?5.2 l m-2 and the t1/2 is reported as 2.2?0.3 h. Besides, in “clinical” (1.25 mg), the CL is on record as 15.6 ? 4.0 l h-1 m-2 and the Vss is 33.7 ? 6.7 l m-2. In “clinical” (24 h), the “percentage of the administered dose recovered in the urine” value is recorded as 41 ? 10% and the “percentage of the administered dose recovered in the urine, range” value is 25-7 1. Moreover, the “terminal (beta) half-life” value in the data set “clinical” (iv) was 2.1 ? 0.3 h. Besides, the “recommended dose, single agent” value with patients (30-min daily times five infusion every 3 weeks, ref Rowinsky et al, 1991, Verweij et al, 1993) is listed as 1.5 mg m-2 day-1. In the data set with patients (preceding single-agent phase I trial, Figure 2, ref Van Warmerdam et al, 1995), the “AUC50 (AUC associated with 50% decrease in ANC)” value was 79.2 h/nmol/L. For the same molecule, the “recommended dose, single agent” value in the data set on patients (previously treated patients, ref Saltz et al (1993)) is 1.25 mg m-2 daily. Moreover, in the data set on patients (previously untreated patients, ref Saltz et al (1993)), the “recommended dose, single agent” value is on record as 1.5 mg m-2 daily. In addition, the “courses resulting in grades III or IV leucocytopenia and neutropenia” value in the data set with patients (single agent 1.5 mg m-2 day-1, ref Rowinsky et al, 1991, Verweij et al, 1993) is recorded as “approximately 75%”.
For orientation: Cmax means the maximum level reached in the sampled fluid or tissue. One may read the Tmax as the time from dosing to the highest level. Regarding `COc1cc([C@@H]2c3cc4c(cc3[C@@H](O[C@@H]3O[C@@H]5CO[C@@H](C)O[C@H]5[C@H](O)[C@H]3O)[C@H]3COC(=O)[C@H]23)OCO4)cc(OC)c1O` [etoposide], the “correlation of pharmacokinetics (AUC, Cmax) or total dose with haematological toxicity” value in data set [1] is on record as “did not yield any significant relationship”. Further, the “recommended dose for phase II clinical trials” value in data set [2] is 40 mg bid. Further, in data set [3] (20 mg), the Cmax worked out at 750 ± 540 nM and the Tmax turned out to be 2.4 ± 1.2 h. In addition, in data set [3] (40 mg), the Cmax was determined as 1230 ± 570 nM and the Tmax was 2.3 ± 1 h. In addition, in data set [4], the “peak plasma concentrations associated with significant toxicity” value was “above 17 μmol l-1”.
In the case of `CC[C@@]1(O)C(=O)OCc2c1cc1n(c2=O)Cc2cc3c(CNC)c(O)ccc3nc2-1` [N-desmethyltopotecan], the “relation of AUC(t) to myelosuppression” value in data set [1] is “not related”. Moreover, the “additional excretion in the urine as the metabolite” value in data set [5] (24 to 48 hours after the fifth daily infusion, four patients) is 0.4%. Also, the “metabolite-to-topotecan ratio of maximal plasma levels” value in data set [5] (all dose levels) amounted to 0.5%. The “metabolite-to-topotecan AUC(t) ratio” value in data set [5] (all dose levels, up to 6 h post-infusion) is reported as 0.012. Moreover, the “anti-tumour activity compared with the parent compound” value in data set [6] is listed as “slightly less anti-tumour activity”.
